Legend:
[1] = system: HIV-1 NSI (THA/92/001, subtype E envelope); assay: p24 gag ELISA of PHA-activated PBMC infected with NSI field isolate; assay type: cell-based; settings: 10 μM drug postinfection
Protocol: We chose HIV-1 stably integrated cells, lymphocytic ACH2 and 8E5 cell lines, as well as monocytic U1 cells (and their uninfected parental counterparts CEM and U937, respectively) for our initial studies, since viral transcription could be activated and scored through signals, such as Tat, TNF-α or phorbol myristate acetate (PMA) and PHA. We first activated viruses in these cells with TNF-α (10 ng/ml) at 37° C. for 2 h, followed by washing, and then we incubated cells with 10 μM concentrations of each drug. […]. A somewhat similar pattern of drug inhibition was also seen when ACH2, 8E5, and U1 cells were treated with either Tat or a combination of PMA and PHA to induce full-length viral transcripts. […]. […] We next examined the effect of all three drugs on primary HIV-1 field isolates of SI and NSI strains. Activated PBMC were infected with two independent HIV-1 viral strains of SI (UG/92/029, subtype A envelope) and NSI (THA/92/001, subtype E envelope). […].
Five days later, the supernatants were collected, and the amount of newly synthesized HIV-1 was measured by p24 antigen assay. […]
Media from HIV-1 infected cell lines were centrifuged to pellet the cells, and supernatants were collected and diluted to 1:100 to 1:1,000 in RPMI 1640 prior to ELISA. […] The p24 gag antigen level was analyzed by using the HIVAG-1 Monoclonal Antibody Kit (Abbott Laboratories, Diagnostics Division). […]

HIV-1 LTR = assay: HIV-1 LTR-CAT reporter, basal transcription in CEM cells; assay type: cell-based; settings: ca. 10 μM, 20 h
From the text: We next sought to determine whether the inhibition of HIV-1 transcription, observed above, could be mediated specifically by cdk inhibitors or by general cell cycle inhibitors. To distinguish between the two possibilities, we performed transfection experiments with all three cdk inhibitors tested above and two other well-established cell cycle inhibitors, namely, hydroxyurea and nocodazole. Hydroxyurea blocks DNA replication by inhibiting ribonucleotide reductase and thus arrests cell cycle progression at the G1/S checkpoint, while nocodazole blocks at G2/M by promoting tubulin depolymerization. […] Therefore, the basal transcription of HIV-1 was inhibited by purine analogs and not general cell cycle inhibitors.
FIG. 3 discloses inhibition of HIV-1 basal and activated transcription by cdk inhibitors. […] The graphs at the bottom of the figure represent the effect of various concentrations of general cell cycle inhibitors (hydroxyurea and nocodazole) on CEM cells. (B) Inhibition of activated transcription in CEM cells was examined using transfected HIV-1 LTR-CAT, together with pcTat plasmid. (C) Experiment similar experiment to that in panel B, except that pcTat plasmid was replaced with E. coli-expressed and purified Tat protein
Lymphocyte CEM (12D7) cells were grown to mid-log phase and were processed for protein electroporation according to a previously published procedure (24). […]

| Compound | block of viral replication (p24 gag), NSI strain [1] | inhibition of HIV-1 basal transcription (CAT activity) (HIV-1 LTR) |
| --- | --- | --- |
| CC(C)[C@H](CO)Nc1nc(Nc2cccc(Cl)c2)c2ncn(C(C)C)c2n1 [Purvalanol A] | effectively blocked viral replication | dramatic inhibition |
| Roscovitine | effectively blocked viral replication | dramatic inhibition |

Reference: patent US20030229105A1, “Treatment of autoimmune disorders” (Cyclacel Limited, priority 2002, published 2003)
